Laboratory results taken from patent US12152035B2, “Androgen receptor binding molecule and use thereof” (Industrial Technology Research Institute, priority 2020, dated 2024).

What was measured:
Assay type in all cases: cell-based
[1] = tested on: full-length androgen receptor; assay: Western blot: degradation of full-length androgen receptor in CWR22RV1 cells; settings: overnight
How it was run: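 CWR22Rv1 cells (5×10^5 per well) seeded overnight in RPMI with 10% FBS at 37 °C, 5% CO2, then given fresh medium and compound at various concentrations overnight. Lysates analysed by Western blot for full-length AR and AR-V7, with GAPDH as loading control.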

VCaP cells = assay: Cytotoxicity assay (AlamarBlue, 72 hours); settings: 72 hours treatment, concentration not given
How it was run: (§1)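 CWR22Rv1 or VCaP cells in RPMI-1640 with 10% FBS were seeded at 1×10^4 cells/well. Next day they were treated with compound, test samples at 100, 10, 1 and 0.1 μM, giving 1% DMSO final. After 72 h, AlamarBlue was added for 4 h, fluorescence was read at Ex/Em 560/590 nm, and % cytotoxicity was calculated.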

CWR22RV1 cells = assay: Cytotoxicity assay (AlamarBlue, 72 hours); settings: 72 hours treatment, concentration not given
How it was run: as §1

[2] = compound concentration 0.1 (unit not given)
[3] = compound concentration 1 (unit not given)
[4] = compound concentration 10 (unit not given)

Compound	Degradation ability for full-length androgen receptor (residual rate %) [1, 2]	Degradation ability for full-length androgen receptor (residual rate %) [1, 3]	Degradation ability for full-length androgen receptor (residual rate %) [1, 4]	Cytotoxicity, VCaP cells (cell viability %) (VCaP cells)	Cytotoxicity, CWR22RV1 cells (cell viability %) (CWR22RV1 cells)
O=C1CCC(N2Cc3c(NC(=O)CCCCCCOc4ccc(C5CCN(C6=Nn7c(nnc7C(F)(F)F)CC6)CC5)cc4)cccc3C2=O)C(=O)N1 (stereo not shown) [Compound 39, N-(2-(2,6-dioxopiperidin-3-yl)-1-oxoisoindolin-4-yl)-7-(4-(1-(3-(trifluoromethyl)-7,8-dihydro-[1,2,4]triazolo[4,3-b]pyridazin-6-yl)piperidin-4-yl)phenoxy)heptanamide]	− (>80%; −)	+ (60-80%: +)	++ (40-60%: ++)	+++ (<40% : +++)	+++ (<40% : +++)
O=C1CCC(N2Cc3cc(C4=CCN(C(=O)COCCCCOc5ccc(C6CCN(C7=Nn8c(nnc8C(F)(F)F)CC7)CC6)cc5)CC4)ccc3C2=O)C(=O)N1 (stereo not shown) [Compound 40, 3-(1-oxo-5-(1-(2-(4-(4-(1-(3-(trifluoromethyl)-7,8-dihydro-[1,2,4]triazolo[4,3-b]pyridazin-6-yl)piperidin-4-yl)phenoxy)butoxy)acetyl)-1,2,3,6-tetrahydropyridin-4-yl)isoindolin-2-yl)piperidine-2,6-dione]	+ (60-80%: +)	+ (60-80%: +)	+++ (<40%: +++)	++ (40-60% : ++)	++ (40-60% : ++)
O=C1CCC(N2Cc3cc(C4CCN(C(=O)COCCCCOc5ccc(C6CCN(C7=Nn8c(nnc8C(F)(F)F)CC7)CC6)cc5)CC4)ccc3C2=O)C(=O)N1 (stereo not shown) [Compound 41, 3-(1-oxo-5-(1-(2-(4-(4-(1-(3-(trifluoromethyl)-7,8-dihydro-[1,2,4]triazolo[4,3-b]pyridazin-6-yl)piperidin-4-yl)phenoxy)butoxy)acetyl)piperidin-4-yl)isoindolin-2-yl)piperidine-2,6-dione]	− (>80%; −)	+ (60-80%: +)	+++ (<40%: +++)	+++ (<40% : +++)	++ (40-60% : ++)
O=C1CCC(N2Cc3cc(C#CCOCCCCOc4ccc(C5CCN(C6=Nn7c(nnc7C(F)(F)F)CC6)CC5)cc4)ccc3C2=O)C(=O)N1 (stereo not shown) [Compound 42]	− (>80%; −)	− (>80%; −)	+ (60-80%: +)	+ (60-80% : +)	+ (60-80% : +)
O=C1CCC(N2C(=O)c3cccc(NCC(=O)N4CCC(N5CCC(C#Cc6ccc(C7CCN(C8=Nn9c(nnc9C(F)(F)F)CC8)CC7)cc6)CC5)CC4)c3C2=O)C(=O)N1 (stereo not shown) [Compound 43, 2-(2,6-dioxopiperidin-3-yl)-4-((2-oxo-2-(4-((4-(1-(3-(trifluoromethyl)-7,8-dihydro-[1,2,4]triazolo[4,3-b]pyridazin-6-yl)piperidin-4-yl)phenyl)ethynyl)-[1,4′-bipiperidin]-1′-yl)ethyl)amino)isoindoline-1,3-dione]	++ (40-60%: ++)	++ (40-60%: ++)	++ (40-60%: ++)	+++ (<40% : +++)	+++ (<40% : +++)
O=C1CCC(N2C(=O)c3cccc(N4CCC(N5CCC(C#Cc6ccc(C7CCN(C8=Nn9c(nnc9C(F)(F)F)CC8)CC7)cc6)CC5)CC4)c3C2=O)C(=O)N1 (stereo not shown) [Compound 44, 2-(2,6-dioxopiperidin-3-yl)-4-(4-((4-(1-(3-(trifluoromethyl)-7,8-dihydro-[1,2,4]triazolo[4,3-b]pyridazin-6-yl)piperidin-4-yl)phenyl)ethynyl)-[1,4′-bipiperidin]-1′-yl)isoindoline-1,3-dione]	− (>80%; −)	− (>80%; −)	++ (40-60%: ++)	+++ (<40% : +++)	+++ (<40% : +++)
O=C1CCC(N2C(=O)c3cccc(N4CCN(C(=O)COCCCCOc5ccc(C6CCN(C7=Nn8c(nnc8C(F)(F)F)CC7)CC6)cc5)CC4)c3C2=O)C(=O)N1 (stereo not shown) [Compound 45, 2-(2,6-dioxopiperidin-3-yl)-4-(4-(2-(4-(4-(1-(3-(trifluoromethyl)-7,8-dihydro-[1,2,4]triazolo[4,3-b]pyridazin-6-yl)piperidin-4-yl)phenoxy)butoxy)acetyl)piperazin-1-yl)isoindoline-1,3-dione]	− (>80%; −)	++ (40-60%: ++)	++ (40-60%: ++)	+++ (<40% : +++)	+ (60-80% : +)
CC1(C)[C@H](NC(=O)c2ccc(C#CC3CCN(c4cccc5c4C(=O)N(C4CCC(=O)NC4=O)C5=O)CC3)cc2)C(C)(C)[C@H]1Oc1ccc2nnc(C(F)(F)F)n2n1 (stereo partly shown) [Compound 46, 4-((1-(2-(2,6-dioxopiperidin-3-yl)-1,3-dioxoisoindolin-4-yl)piperidin-4-yl)ethynyl)-N-((1r,3r)-2,2,4,4-tetramethyl-3-((3-(trifluoromethyl)-[1,2,4]triazolo[4,3-b]pyridazin-6-yl)oxy)cyclobutyl)benzamide]	++ (40-60%: ++)	++ (40-60%: ++)	− (>80%; −)	++ (40-60% : ++)	− (<80% : −)
O=C1CCC(N2C(=O)c3cccc(N4CCN(c5ccc(C(=O)N[C@H]6CC[C@H](Oc7ccc8nnc(C(F)(F)F)n8n7)CC6)cn5)CC4)c3C2=O)C(=O)N1 (stereo partly shown) [Compound 47, 6-(4-(2-(2,6-dioxopiperidin-3-yl)-1,3-dioxoisoindolin-4-yl)piperazin-1-yl)-N-((1r,4r)-4-((3-(trifluoromethyl)-[1,2,4]triazolo[4,3-b]pyridazin-6-yl)oxy)cyclohexyl)nicotinamide]	++ (40-60%: ++)	+++ (<40%: +++)	+ (60-80%: +)	++ (40-60% : ++)	− (<80% : −)
O=C1CCC(N2C(=O)c3cccc(N4CCC(CN5CCN(c6ccc(C(=O)N[C@H]7CC[C@H](Oc8ccc9nnc(C(F)(F)F)n9n8)CC7)cn6)CC5)CC4)c3C2=O)C(=O)N1 (stereo partly shown) [Compound 48, 6-(4-((1-(2-(2,6-dioxopiperidin-3-yl)-1,3-dioxoisoindolin-4-yl)piperidin-4-yl)methyl)piperazin-1-yl)-N-((1r,4r)-4-((3-(trifluoromethyl)-[1,2,4]triazolo[4,3-b]pyridazin-6-yl)oxy)cyclohexyl)nicotinamide]	− (>80%; −)	− (>80%; −)	− (>80%; −)	− (<80% : −)	− (<80% : −)
CC1(C)C(NC(=O)c2ccc(C#CC3CCN(C(=O)CNc4cccc5c4C(=O)N(C4CCC(=O)NC4=O)C5=O)CC3)cc2)C(C)(C)C1Oc1ccc2nnc(C(F)(F)F)n2n1 (stereo not shown) [Compound 49, 4-((1-((2-(2,6-dioxopiperidin-3-yl)-1,3-dioxoisoindolin-4-yl)glycyl)piperidin-4-yl)ethynyl)-N-((1r,3r)-2,2,4,4-tetramethyl-3-((3-(trifluoromethyl)-[1,2,4]triazolo[4,3-b]pyridazin-6-yl)oxy)cyclobutyl)benzamide]	++ (40-60%: ++)	++ (40-60%: ++)	− (>80%; −)	+++ (<40% : +++)	++ (40-60% : ++)
